Experimental data from paper PMC4415586 (European journal of medicinal chemistry, 2014).
Values belong to the compound of their own block, whether it stands above or below them.

What was measured:
TNKS-1 = target: T1, TNKS-1 (Homo sapiens, UniProt O95271); experiment: TNKS-1 autoribosylation assay; settings: for inhibition at 1 µM: read-out: % of inhibition TNKS-1, 1 μM, duplicate; for % of inhibition TNKS-1: 1 μM, duplicate
T1 sequence (O95271 1-1327): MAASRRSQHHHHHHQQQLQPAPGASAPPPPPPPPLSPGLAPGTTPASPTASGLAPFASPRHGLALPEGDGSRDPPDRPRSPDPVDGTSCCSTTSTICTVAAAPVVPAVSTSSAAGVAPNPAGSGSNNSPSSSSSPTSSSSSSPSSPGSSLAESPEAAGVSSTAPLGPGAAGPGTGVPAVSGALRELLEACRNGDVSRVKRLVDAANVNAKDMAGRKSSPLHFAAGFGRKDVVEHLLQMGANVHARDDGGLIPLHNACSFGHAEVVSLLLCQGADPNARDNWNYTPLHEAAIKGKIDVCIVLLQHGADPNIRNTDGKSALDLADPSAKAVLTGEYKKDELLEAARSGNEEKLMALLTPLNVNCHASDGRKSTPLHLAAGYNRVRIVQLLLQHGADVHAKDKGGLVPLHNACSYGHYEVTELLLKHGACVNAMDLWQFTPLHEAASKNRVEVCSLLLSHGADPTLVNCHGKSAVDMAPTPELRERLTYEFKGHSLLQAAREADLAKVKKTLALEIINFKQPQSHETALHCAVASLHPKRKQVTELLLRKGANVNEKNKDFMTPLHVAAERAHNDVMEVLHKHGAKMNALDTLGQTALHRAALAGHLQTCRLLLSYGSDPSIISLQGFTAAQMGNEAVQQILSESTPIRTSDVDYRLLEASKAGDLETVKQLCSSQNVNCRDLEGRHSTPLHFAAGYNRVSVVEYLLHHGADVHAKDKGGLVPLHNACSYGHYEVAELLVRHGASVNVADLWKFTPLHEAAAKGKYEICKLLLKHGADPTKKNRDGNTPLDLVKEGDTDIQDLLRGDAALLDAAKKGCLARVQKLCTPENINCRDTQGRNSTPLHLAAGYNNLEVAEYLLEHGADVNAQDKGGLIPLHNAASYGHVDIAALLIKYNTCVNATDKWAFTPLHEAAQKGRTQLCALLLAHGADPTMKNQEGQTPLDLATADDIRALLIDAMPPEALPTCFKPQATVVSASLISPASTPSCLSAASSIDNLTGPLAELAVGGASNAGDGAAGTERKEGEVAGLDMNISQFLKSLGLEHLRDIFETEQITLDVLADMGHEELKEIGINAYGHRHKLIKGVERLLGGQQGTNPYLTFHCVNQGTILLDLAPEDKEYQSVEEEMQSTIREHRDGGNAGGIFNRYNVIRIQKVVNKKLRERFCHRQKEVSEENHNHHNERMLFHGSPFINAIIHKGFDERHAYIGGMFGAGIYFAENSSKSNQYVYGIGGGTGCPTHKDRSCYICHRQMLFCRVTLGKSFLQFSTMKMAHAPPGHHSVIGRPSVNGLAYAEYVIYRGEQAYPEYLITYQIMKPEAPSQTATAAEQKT

TNKS-2 = target: T2, TNKS-2 (Homo sapiens, UniProt Q9H2K2); experiment: TNKS-2 autoribosylation assay; settings: for inhibition at 1 µM: read-out: % of inhibition TNKS-2, 1 μM, duplicate
T2 sequence (Q9H2K2 1-1166): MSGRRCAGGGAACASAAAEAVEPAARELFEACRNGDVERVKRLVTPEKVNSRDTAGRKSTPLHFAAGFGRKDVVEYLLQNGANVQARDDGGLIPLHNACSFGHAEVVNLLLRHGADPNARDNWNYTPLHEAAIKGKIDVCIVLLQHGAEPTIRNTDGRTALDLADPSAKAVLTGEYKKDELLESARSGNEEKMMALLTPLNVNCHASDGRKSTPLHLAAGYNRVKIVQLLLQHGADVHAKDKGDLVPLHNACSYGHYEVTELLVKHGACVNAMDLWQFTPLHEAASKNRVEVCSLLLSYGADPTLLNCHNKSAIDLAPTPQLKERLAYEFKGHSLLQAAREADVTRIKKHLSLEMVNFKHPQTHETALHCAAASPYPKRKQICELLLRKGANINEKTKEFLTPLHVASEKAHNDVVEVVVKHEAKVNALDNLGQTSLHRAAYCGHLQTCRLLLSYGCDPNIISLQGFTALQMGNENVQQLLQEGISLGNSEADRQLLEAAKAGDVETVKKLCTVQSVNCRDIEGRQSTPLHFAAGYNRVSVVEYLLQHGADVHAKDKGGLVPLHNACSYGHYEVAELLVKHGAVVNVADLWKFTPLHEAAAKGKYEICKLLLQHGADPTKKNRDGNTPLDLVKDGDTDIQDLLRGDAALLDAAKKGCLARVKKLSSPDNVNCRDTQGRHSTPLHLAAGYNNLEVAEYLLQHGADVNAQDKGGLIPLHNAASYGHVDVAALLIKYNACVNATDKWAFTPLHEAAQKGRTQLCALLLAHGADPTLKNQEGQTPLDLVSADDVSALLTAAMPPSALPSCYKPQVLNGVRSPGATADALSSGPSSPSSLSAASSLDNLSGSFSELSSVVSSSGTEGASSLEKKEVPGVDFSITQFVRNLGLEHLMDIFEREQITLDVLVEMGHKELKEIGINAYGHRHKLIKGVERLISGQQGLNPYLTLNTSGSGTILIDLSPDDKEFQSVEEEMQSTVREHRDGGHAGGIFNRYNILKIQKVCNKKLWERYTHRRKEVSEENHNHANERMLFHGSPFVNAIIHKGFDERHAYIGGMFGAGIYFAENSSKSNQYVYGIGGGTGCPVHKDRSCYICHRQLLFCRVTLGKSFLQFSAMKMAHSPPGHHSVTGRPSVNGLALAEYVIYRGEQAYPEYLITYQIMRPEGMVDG

[1] = tested on: TCF transcriptional activity (Wnt) in DLD-1 colorectal cancer cells; experiment: TCF-luciferase reporter; format: cell-based; settings: DLD-1 cells, 1 μM, 24 h
DLD-1 cancer cells = experiment: Colony growth assay, DLD-1; format: cell-based; settings: 1, 5 and 10 μM, treated daily, 10 days
[2] = tested on: RKO colorectal cancer cell line; experiment: Cell growth inhibition, Wnt-negative RKO; format: cell-based; settings: negative control cell line
[3] = tested on: PARP enzymes (1–3, 6–8, 10–12, 14); experiment: PARP selectivity panel; settings: 10 μM, duplicate
PARP-2 = PARP-2 (Homo sapiens, UniProt Q9UGN5); settings: 20 nM, reference compound
PARP-2, sequence (Q9UGN5 whole entry): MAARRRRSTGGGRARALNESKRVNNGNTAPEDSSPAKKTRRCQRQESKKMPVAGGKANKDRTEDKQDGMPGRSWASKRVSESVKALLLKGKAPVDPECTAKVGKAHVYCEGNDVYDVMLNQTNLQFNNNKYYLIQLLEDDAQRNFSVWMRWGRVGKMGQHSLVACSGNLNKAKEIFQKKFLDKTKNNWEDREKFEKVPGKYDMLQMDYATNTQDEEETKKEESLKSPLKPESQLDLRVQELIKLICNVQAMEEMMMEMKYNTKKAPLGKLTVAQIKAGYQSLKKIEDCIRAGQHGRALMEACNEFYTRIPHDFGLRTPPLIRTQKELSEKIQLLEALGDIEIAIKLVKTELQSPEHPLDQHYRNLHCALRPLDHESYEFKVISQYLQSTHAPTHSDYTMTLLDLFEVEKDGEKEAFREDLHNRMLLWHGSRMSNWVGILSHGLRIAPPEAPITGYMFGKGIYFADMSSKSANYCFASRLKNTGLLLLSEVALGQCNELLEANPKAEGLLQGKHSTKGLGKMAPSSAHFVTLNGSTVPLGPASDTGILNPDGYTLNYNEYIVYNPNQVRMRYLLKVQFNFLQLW

PARP-14 = PARP-14 (Homo sapiens, UniProt Q460N5); experiment: PARP-14 enzymatic assay; settings: 100 μM
PARP-14, sequence (Q460N5 whole entry): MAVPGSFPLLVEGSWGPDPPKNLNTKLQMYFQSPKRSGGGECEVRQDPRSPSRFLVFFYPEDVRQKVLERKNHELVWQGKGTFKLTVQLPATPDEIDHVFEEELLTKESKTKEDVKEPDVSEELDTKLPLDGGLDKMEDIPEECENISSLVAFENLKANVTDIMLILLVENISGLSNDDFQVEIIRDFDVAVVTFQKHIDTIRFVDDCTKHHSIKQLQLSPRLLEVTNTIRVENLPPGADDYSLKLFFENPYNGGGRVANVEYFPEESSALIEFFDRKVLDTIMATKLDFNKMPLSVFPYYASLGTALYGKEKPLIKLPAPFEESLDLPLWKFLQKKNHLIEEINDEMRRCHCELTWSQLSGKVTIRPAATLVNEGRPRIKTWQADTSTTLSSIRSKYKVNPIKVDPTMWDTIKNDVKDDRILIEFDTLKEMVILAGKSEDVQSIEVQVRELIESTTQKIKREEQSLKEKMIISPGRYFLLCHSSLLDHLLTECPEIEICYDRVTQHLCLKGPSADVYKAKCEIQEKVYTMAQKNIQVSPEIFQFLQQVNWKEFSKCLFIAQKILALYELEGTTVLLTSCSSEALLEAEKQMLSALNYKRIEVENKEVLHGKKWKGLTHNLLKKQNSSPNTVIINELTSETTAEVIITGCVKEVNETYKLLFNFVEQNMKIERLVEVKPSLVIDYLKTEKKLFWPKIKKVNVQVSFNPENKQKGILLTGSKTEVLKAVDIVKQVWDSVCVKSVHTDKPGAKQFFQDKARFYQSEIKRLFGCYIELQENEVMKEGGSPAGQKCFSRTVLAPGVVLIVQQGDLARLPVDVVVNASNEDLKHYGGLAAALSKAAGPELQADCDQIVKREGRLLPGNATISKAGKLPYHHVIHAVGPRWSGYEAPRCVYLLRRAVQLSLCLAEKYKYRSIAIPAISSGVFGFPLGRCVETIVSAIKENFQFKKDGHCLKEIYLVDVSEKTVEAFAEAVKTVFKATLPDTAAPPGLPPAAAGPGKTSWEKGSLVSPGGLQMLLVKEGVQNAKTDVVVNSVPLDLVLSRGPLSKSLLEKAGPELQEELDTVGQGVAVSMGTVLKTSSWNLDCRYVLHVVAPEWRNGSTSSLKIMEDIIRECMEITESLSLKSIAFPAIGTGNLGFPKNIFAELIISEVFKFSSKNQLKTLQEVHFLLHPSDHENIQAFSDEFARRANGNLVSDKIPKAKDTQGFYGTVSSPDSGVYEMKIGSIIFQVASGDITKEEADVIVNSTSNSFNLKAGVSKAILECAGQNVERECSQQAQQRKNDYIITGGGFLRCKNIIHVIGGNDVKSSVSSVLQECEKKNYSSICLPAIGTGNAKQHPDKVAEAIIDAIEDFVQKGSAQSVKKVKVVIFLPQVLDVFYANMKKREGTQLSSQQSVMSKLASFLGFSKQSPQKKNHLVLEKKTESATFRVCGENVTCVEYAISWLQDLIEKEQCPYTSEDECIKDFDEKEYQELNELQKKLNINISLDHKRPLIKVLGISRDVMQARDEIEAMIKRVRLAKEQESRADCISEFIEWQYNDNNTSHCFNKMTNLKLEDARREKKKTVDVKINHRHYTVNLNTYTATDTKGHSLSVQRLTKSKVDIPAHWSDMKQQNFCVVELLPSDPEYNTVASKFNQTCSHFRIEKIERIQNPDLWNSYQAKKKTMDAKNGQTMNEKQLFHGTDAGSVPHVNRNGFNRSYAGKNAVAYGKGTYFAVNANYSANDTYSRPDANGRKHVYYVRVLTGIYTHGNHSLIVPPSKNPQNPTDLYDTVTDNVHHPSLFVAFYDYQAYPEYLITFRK

inhibition at 1 µM (TNKS-1): > 70% | inhibition at 1 µM (TNKS-2): > 70%
Compound: COc1ccc2sc3c(O)nc4ccccc4c3c2c1 [compound 6, 10-Methoxy[l]benzothieno[2,3-c]quinolin-6(5H)-one]

% of inhibition TNKS-1 (TNKS-1): > 70% | inhibition at 1 µM (TNKS-2): > 70%
Compound: COc1ccc2c(c1)nc(O)c1sc3ccccc3c12 [compound 7, 3-Methoxy[l]benzothieno[2,3-c]quinolin-6(5H)-one]

inhibition at 1 µM (TNKS-1): ≤ 90%
Compound: O=c1[nH]c2ccccc2c2c1sc1ccc(O)cc12 [compound 8, 10-Hydroxy[l]benzothieno[2,3-c]quinolin-6(5H)-one]

inhibition at 1 µM (TNKS-1): ≤ 100%
Compound: O=c1[nH]c2cc(O)ccc2c2c1sc1ccccc12 [compound 9, 3-Hydroxy[l]benzothieno[2,3-c]quinolin-6(5H)-one]

inhibition at 1 µM (TNKS-1): 84%
Compound: O=c1[nH]c(-c2ccccc2)cc2c1sc1ccccc12 [compound 16, 3-Phenyl[1]benzothieno[2,3-c]pyridin-1(2H)-one]

% of inhibition TNKS-1 (TNKS-1): nearly inactive
Compound: O=c1[nH]c(-c2ccccc2)nc2c3c(sc12)CCCC3 [compound 19, 2-Phenyl-6,7,8,9-tetrahydro-3H-benzo[4,5]thieno[3,2-d] pyrimidin-4-one]

inhibition at 1 µM (TNKS-1): 98%
Compound: Cc1ccc(-c2nc3c(sc4ccccc43)c(=O)[nH]2)cc1 [compound 22, 2-p-Tolyl-3H-benzo[4,5]thieno[3,2-d]pyrimidin-4-one]

Compound: CC(C)(C)c1ccc(-c2nc3c(sc4ccccc43)c(=O)[nH]2)cc1 [compound 23, 2-(4-tert-Butyl-phenyl)-3H-benzo[4,5]thieno[3,2-d] pyrimidin-4-one]
TCF reporter activity inhibition [1]: comparable fashion to the reference compounds 1 and IWR-1 | long-term growth inhibition of DLD-1 cells (DLD-1 cancer cells): marked efficacy | growth inhibition of Wnt-negative RKO cells [2]: marginal non-specific effects were only detected at concentrations higher than 10 μM | inhibition of the other PARPs tested [3]: below 20% | TNKS-1 inhibition (TNKS-1; 10 μM): fully inhibited | TNKS-2 inhibition (TNKS-2; 10 μM): fully inhibited

Compound: Olaparib [AZD 2281]
% of inhibition PARP-2 (PARP-2): 100% | % inhibition PARP-14 (PARP-14): less than 20%
